Key:
[1] = system: Kuramochi cells; assay: BrdU Cell Proliferation Assay; type: cell-based; details: read-out: BrdU - KURAMOCHI.1: IC50
Outline: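 Kuramochi cells were seeded at 2,000 cells/well, adhered overnight, then treated with a 10-point, 3-fold compound dilution series for 4 days. Proliferation was measured by a 1-hour BrdU pulse, anti-BrdU peroxidase colorimetric ELISA and 450 nm absorbance. Values were background-subtracted and normalized to DMSO wells.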

[2] = system: Kuramochi cells labeled with mApple-H2B; assay: IncuCyte Cell Proliferation Assay; type: cell-based; details: 72 h
Outline: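 Cells imaged at 0 and 72 h after compound treatment (10 points, ½ log dilution, 20 μM top), with fluorescent nuclei counted. Fold change in count was normalized to DMSO wells and fitted to dose-response curves to give GI50.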

Structure (SMILES) | IC50 [1] | IC50 [2]
CNC(=O)C(NC(=O)[C@@H]1CN(C(=O)c2cncs2)CC12CN(C(=O)[C@H]1CC1(C)C)C2)c1nc(C2CCCCC2)co1 (some centres unmarked) [I-425] | > 10 µM | > 20 µM
CNC(=O)[C@@H](NC(=O)[C@@H]1CN(C(=O)c2cncs2)CC12CN(C(=O)[C@H]1CC1(C)C)C2)[C@@H](C)OCC1CCCCC1 [I-129A] | 0.5 to 5 µM | 0.5 to 5 µM
CNC(=O)C(NC(=O)[C@@H]1CN(C(=O)c2cncs2)CC12CN(C(=O)[C@H]1CC1(C)C)C2)c1cccc(N2CCOCC2)n1 (some centres unmarked) [I-422] | > 10 µM | > 20 µM
C[C@@H](OCC1CCCCC1)[C@H](NC(=O)C1CN(C(=O)c2cnn(Cc3ccccc3)c2)CC12CN(C(=O)[C@H]1CC1(C)C)C2)C(=O)N1CCCC(CO)C1 (some centres unmarked) [I-105] | ≤ 0.5 µM | ≤ 0.5 µM
COC[C@H]1CCCN(C(=O)[C@@H](NC(=O)[C@@H]2CN(C(=O)c3cncs3)CC23CN(C(=O)[C@H]2CC2(C)C)C3)[C@@H](C)OCc2ccc(F)cc2)C1 [I-318] | 0.5 to 5 µM | 0.5 to 5 µM
C[C@@H](OCC1CCCCC1)[C@H](NC(=O)[C@@H]1CN(C(=O)c2cnn(Cc3ccccc3)c2)CC12CN(C(=O)[C@H]1CC1(C)C)C2)C(=O)N1CC[C@@H]1CN [I-270] | > 10 µM | 5 to 20 µM
COC[C@H]1CCCN(C(=O)[C@@H](NC(=O)[C@@H]2CN(C(=O)c3cncs3)CC23CN(C(=O)[C@H]2CC2(C)C)C3)[C@@H](C)OCc2cccc(F)c2)C1 [I-322] | 0.5 to 5 µM | 0.5 to 5 µM
CNC(=O)C(NC(=O)[C@@H]1CN(C(=O)c2cncs2)CC12CN(C(=O)[C@H]1CC1(C)C)C2)c1cccc(C2CCCCC2)n1 (some centres unmarked) [I-362] | 0.5 to 5 µM | 5 to 20 µM
CNC(=O)[C@@H](NC(=O)[C@H]1CN(C(=O)c2sc(C)nc2C)CC12CN(C(=O)[C@H]1CC1(C)C)C2)[C@@H](C)OCC1CCCCC1 [I-213B] | > 10 µM | > 20 µM
C[C@@H](OC1(C2CCCCC2)CC1)[C@H](NC(=O)[C@@H]1CN(C(=O)c2cncs2)CC12CN(C(=O)[C@H]1CC1(C)C)C2)C(=O)N1CCCCC1 [I-357] | 5 to 10 µM | 5 to 20 µM
COC[C@H]1CCCN(C(=O)[C@@H](NC(=O)[C@@H]2CN(C(=O)c3cncs3)CC23CN(C(=O)[C@H]2CC2(C)C)C3)[C@@H](C)OCc2ccc(C(F)(F)F)cc2)C1 [I-319] | ≤ 0.5 µM | 0.5 to 5 µM
C[C@@H](OCC1CCCCC1)[C@H](NC(=O)C1CN(C(=O)C2CCC(=O)NC2)CC12CN(C(=O)[C@H]1CC1(C)C)C2)C(=O)N1CCCCC1 (some centres unmarked) [I-265] | > 10 µM | > 20 µM
C[C@@H](OCC1CCOCC1)[C@H](NC(=O)[C@@H]1CN(C(=O)c2cncs2)CC12CN(C(=O)C(C)(C)C1CC1)C2)C(C)(C)O [I-341] | > 10 µM | > 20 µM
C[C@@H](OCC12CCC(CC1)CC2)[C@H](NC(=O)[C@@H]1CN(C(=O)c2cncs2)CC12CN(C(=O)[C@H]1CC1(C)C)C2)C(C)(C)O [I-304] | 0.5 to 5 µM | 0.5 to 5 µM
Cc1cc(C(=O)N2CC(C(=O)N[C@H](C(=O)N3CCCCC3)[C@@H](C)OCC3CCCCC3)C3(C2)CN(C(=O)[C@H]2CC2(C)C)C3)sn1 (some centres unmarked) [I-311] | ≤ 0.5 µM | ≤ 0.5 µM
CNC(=O)[C@@H](NC(=O)[C@@H]1CN(C(=O)c2cnn(Cc3ccccc3)c2)CC12CN(C(=O)[C@H]1CC1(C)C)C2)[C@@H](C)OC[C@H]1CC[C@@H](O)CC1 [I-424] | > 10 µM | > 20 µM
C[C@@H](OCc1ccccc1)[C@H](NC(=O)[C@@H]1CN(C(=O)c2cnn(Cc3ccccc3)c2)CC12CN(C(=O)[C@H]1CC1(C)C)C2)C(=O)N1CCC(F)(F)CC1 [I-280] | 0.5 to 5 µM | 0.5 to 5 µM
CO[C@H](C)[C@H](NC(=O)[C@@H]1CN(C(=O)c2cnn(Cc3ccccc3)c2)CC12CN(C(=O)[C@H]1CC1(C)C)C2)C(=O)N1CCC(CN)CC1 [I-306] | > 10 µM | > 20 µM
CNC(=O)[C@@H](NC(=O)[C@@H]1CN(C(=O)c2cnc(C3CC3)s2)CC12CN(C(=O)[C@H]1CC1(C)C)C2)[C@@H](C)OCC1CCCCC1 [I-178A] | > 10 µM | 5 to 20 µM
C[C@@H](OCC1CCCCC1)[C@H](NC(=O)C1CN(C(=O)c2cncs2)CC12CN(C(=O)[C@H]1CC1(C)C)C2)C(=O)N1CCC[C@@H](CO)C1 (some centres unmarked) [I-197] | 0.5 to 5 µM | ≤ 0.5 µM
CNC(=O)[C@@H](NC(=O)[C@@H]1CN(C(=O)Cc2cnn(C)c2)CC12CN(C(=O)[C@H]1CC1(C)C)C2)[C@@H](C)OCc1ccccc1 [I-384] | > 10 µM | > 20 µM

Structure (SMILES) | IC50 [1] | IC50 [2]
CNC(=O)[C@@H](NC(=O)[C@@H]1CN(C(=O)c2cnc(CC3CC3)s2)CC12CN(C(=O)[C@H]1CC1(C)C)C2)[C@@H](C)OCC1CCCCC1 [I-177A] | 0.5 to 5 µM | 5 to 20 µM
CC1(C)C[C@@H]1C(=O)N1CC2(CN(C(=O)c3cncs3)C[C@@H]2C(=O)N[C@@H](COCC2CCCCC2)C(=O)N2CCCCC2)C1 [I-293] | > 10 µM | > 20 µM
CC1(C)C[C@@H]1C(=O)N1CC2(CN(C(=O)c3cnn(Cc4ccccc4)c3)C[C@H]2C(=O)N[C@@H]2CCN(c3ccccc3)C2)C1 [I-207] | ≤ 0.5 µM | 5 to 20 µM
C[C@@H](OCC1CCC(F)(F)CC1)[C@H](NC(=O)[C@@H]1CN(C(=O)c2cncs2)CC12CN(C(=O)[C@H]1CC1(C)C)C2)C(=O)N1CCC(C)(C)CC1 [I-386] | ≤ 0.5 µM | ≤ 0.5 µM
CNC(=O)[C@@H](NC(=O)[C@@H]1CN(C(=O)c2cnn(Cc3ccccc3)c2)CC12CN(C(=O)[C@H]1CC1(C)C)C2)[C@@H](C)N(CC1CCCCC1)C(C)=O [I-273, (S)-6-(1-benzyl-1H-pyrazole-4-carbonyl)-N-((2S,3R)-3-(N-(cyclohexylmethyl)acetamido)-1-(methylamino)-1-oxobutan-2-yl)-2-((S)-2,2-dimethylcyclopropane-1-carbonyl)-2,6-diazaspiro[3.4]octane-8-carboxamide] | > 10 µM | > 20 µM
[2H]C([2H])([2H])NC(=O)C(NC(=O)[C@@H]1CN(C(=O)c2cncs2)CC12CN(C(=O)[C@H]1CC1(C)C)C2)c1cccc(N2CCOCC2)n1 (some centres unmarked) [I-18] |  | > 20 µM
C[C@@H](OCC12CCC(CC1)OC2)[C@H](NC(=O)[C@@H]1CN(C(=O)c2cncs2)CC12CN(C(=O)[C@H]1CC1(C)C)C2)C(=O)N1CCC[C@H](COC(F)(F)F)C1 [I-460] |  | 0.5 to 5 µM
Cc1ccc(CNC(=O)[C@@H]2CN(C(=O)c3cnn(Cc4ccccc4)c3)CC23CN(C(=O)C(C)(C)C2CC2)C3)nn1 [I-387, (S)-6-(1-benzyl-1H-pyrazole-4-carbonyl)-2-(2-cyclopropyl-2-methylpropanoyl)-N-((6-methylpyridazin-3-yl)methyl)-2,6-diazaspiro[3.4]octane-8-carboxamide] |  | > 20 µM
CNC(=O)[C@@H](NC(=O)[C@@H]1CN(C(=O)c2cnn(Cc3ccccc3)c2)CC12CN(C(=O)[C@H]1CC1(C)C)C2)[C@@H](C)OC[C@H]1CC[C@H](O)CC1 [I-413] |  | > 20 µM
CNC(=O)[C@@H](NC(=O)[C@@H]1CN(C(=O)c2cnn(Cc3ccccc3)c2)CC12CN(C(=O)[C@H]1CC1(C)C)C2)C(C)(C)OCc1ccccc1 [I-393] |  | 5 to 20 µM
C[C@@H](OCC12CCC(CC1)OC2)[C@H](NC(=O)[C@@H]1CN(C(=O)c2cncs2)CC12CN(C(=O)[C@H]1CC1(C)C)C2)C(=O)N1CCC(C(F)(F)F)CC1 [I-454, (S)—N-((2S,3R)-3-((2-oxabicyclo[2.2.2]octan-4-yl)methoxy)-1-oxo-1-(4-(trifluoromethyl)piperidin-1-yl)butan-2-yl)-2-((S)-2,2-dimethylcyclopropane-1-carbonyl)-6-(thiazole-5-carbonyl)-2,6-diazaspiro[3.4]octane-8-carboxamide] |  | 0.5 to 5 µM
CNC(=O)C(NC(=O)[C@@H]1CN(C(=O)c2cncs2)CC12CN(C(=O)C(C)(C)C1CC1)C2)c1cccc(C2CCOCC2)n1 (some centres unmarked) [I-338] |  | > 20 µM
CC1(C)C[C@@H]1C(=O)N1CC2(CN(C(=O)c3cncs3)C[C@H]2C(=O)NC(CO)c2cccc(C3CCC(F)(F)CC3)n2)C1 (some centres unmarked) [I-419] |  | > 20 µM
C[C@@H](OCC1CCCCC1)C(NC(=O)[C@@H]1CN(C(=O)c2cncs2)CC12CN(C(=O)[C@H]1CC1(C)C)C2)c1nnco1 (stereo in doubt) [I-415, (S)—N-((1S,2R)-2-(cyclohexylmethoxy)-1-(1,3,4-oxadiazol-2-yl)propyl)-2-((S)-2,2-dimethylcyclopropane-1-carbonyl)-6-(thiazole-5-carbonyl)-2,6-diazaspiro[3.4]octane-8-carboxamide] |  | 0.5 to 5 µM
C[C@@H](OCC1CCOCC1)[C@H](NC(=O)[C@@H]1CN(C(=O)c2cn[nH]c2)CC12CN(C(=O)[C@H]1CC1(C)C)C2)C(=O)N1CCC(F)(F)CC1 [I-297] |  | > 20 µM
C[C@@H](OCC12CCC(CC1)OC2)[C@H](NC(=O)[C@@H]1CN(C(=O)c2cncs2)CC12CN(C(=O)[C@H]1CC1(C)C)C2)C(=O)N1CCC(OC(F)(F)F)CC1 [I-457] |  | 0.5 to 5 µM
C[C@@H](OCC1CCC(F)(F)CC1)[C@@H](COC1CCC(F)(F)CC1)NC(=O)[C@@H]1CN(C(=O)c2cncs2)CC12CN(C(=O)[C@H]1CC1(C)C)C2 [I-315] |  | 0.5 to 5 µM
CC1(C)C[C@@H]1C(=O)N1CC2(CN(C(=O)c3cnn(Cc4ccccc4)c3)C[C@H]2C(=O)NC[C@H]2CC[C@@H](C)CC2)C1 [I-388] |  | 0.5 to 5 µM
CC(O[C@H](C)[C@@H](COC1CCC(F)(F)CC1)NC(=O)[C@@H]1CN(C(=O)c2cncs2)CC12CN(C(=O)[C@H]1CC1(F)F)C2)C1CCC(F)(F)CC1 (some centres unmarked) [I-316] |  | > 20 µM
C[C@@H](OCC1CCC(F)(F)CC1)[C@@H](COC1CCOCC1)NC(=O)[C@@H]1CN(C(=O)c2cncs2)CC12CN(C(=O)[C@H]1CC1(C)C)C2 [I-314] |  | ≤ 0.5 µM
Cc1nc(C)c(C(=O)N2C[C@@H](C(=O)N[C@H](C(=O)N3CCC(C(F)(F)F)CC3)[C@@H](C)OCC34CCC(CC3)OC4)C3(C2)CN(C(=O)[C@H]2CC2(C)C)C3)s1 [I-456] |  | 0.5 to 5 µM

Source: patent US12065445B2, “CDK2 inhibitors and methods of using the same” (Cedilla Therapeutics, Inc., priority 2021, dated 2024)
